Here are results for one compound from publication PMC8956723, “Secretory quality control constrains functional selection-associated protein structure innovation” (Communications Biology, 2022).

Assay in all cases: ELISA, CRP binding to immobilised PC-KLH
Holding throughout (conditions): PC presented as immobilised KLH conjugate, not free ligand; 2 mM CaCl2, TBS pH 7.4; calcium-dependent
A general note: ELISA stands for enzyme-linked immunosorbent assay.

The target in assay [1] is T1, mouse CRP (Mus musculus, UniProt P14847).
T1 construct: signal peptide replaced by alpha-factor signal, N-terminal 6xHis tag kept; secreted from Pichia pastoris GS115; homopentamer
T1 sequence (P14847 20-225): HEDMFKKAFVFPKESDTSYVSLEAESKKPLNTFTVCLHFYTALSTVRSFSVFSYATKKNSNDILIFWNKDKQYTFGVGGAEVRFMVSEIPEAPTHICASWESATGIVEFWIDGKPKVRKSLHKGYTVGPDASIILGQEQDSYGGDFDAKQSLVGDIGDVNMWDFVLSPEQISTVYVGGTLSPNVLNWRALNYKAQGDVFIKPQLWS

Assay [2] deals with T2, human CRP (Homo sapiens, UniProt P02741).
T2 sequence (P02741 19-224): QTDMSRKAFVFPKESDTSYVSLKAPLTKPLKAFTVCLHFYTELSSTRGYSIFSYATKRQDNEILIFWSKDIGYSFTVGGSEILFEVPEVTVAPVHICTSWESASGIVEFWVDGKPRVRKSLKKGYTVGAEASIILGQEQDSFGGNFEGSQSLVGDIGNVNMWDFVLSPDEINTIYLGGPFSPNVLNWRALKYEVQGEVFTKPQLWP

For assay [3], the target named is T3, rat CRP (Rattus norvegicus, UniProt P48199).
T3 construct: signal peptide replaced by alpha-factor signal, N-terminal 6xHis tag kept; secreted from Pichia pastoris GS115; homopentamer
T3 sequence (P48199 20-230): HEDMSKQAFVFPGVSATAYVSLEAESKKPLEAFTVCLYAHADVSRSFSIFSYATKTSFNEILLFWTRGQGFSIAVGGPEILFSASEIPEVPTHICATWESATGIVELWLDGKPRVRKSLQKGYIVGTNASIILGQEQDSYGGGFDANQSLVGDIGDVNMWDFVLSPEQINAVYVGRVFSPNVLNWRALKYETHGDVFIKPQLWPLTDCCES

As to `C[N+](C)(C)CCOP(=O)([O-])O` [phosphorylcholine], the “ELISA, CRP binding to immobilised PC-KLH” value in assay [1] was “mouse, rat, and human CRP also showed a comparable capacity to bind PC”; in assay [2], “mouse, rat, and human CRP also showed a comparable capacity to bind PC”; in assay [3], “mouse, rat, and human CRP also showed a comparable capacity to bind PC”.
